Test results published in ChEMBL document CHEMBL5108065 (J Med Chem, 2022).
≈ marks a conversion by molar mass, not a printed value. Calls of active or inactive are those of the source. No cut-off for these calls is given here.

Assays:
Plasmodium falciparum [1] = experiment: Antimalarial activity against Plasmodium falciparum Dd2 harbouring Pf-crt, Pf-mdrl,Pf-dhfr, Pf-dhps mutated loci assessed as inhibition of parasite growth pretreated for 48 hrs followed by [3H]-hypoxanthine addition measured after 24 hrs by scintillation counting method; type: functional, organism-based
Plasmodium falciparum [2] = experiment: Antimalarial activity against Plasmodium falciparum 7G8 harbouring Pf-crt, Pf-mdrl,Pf-dhfr, Pf-dhps mutated loci assessed as inhibition of parasite growth pretreated for 48 hrs followed by [3H]-hypoxanthine addition measured after 24 hrs by scintillation counting method; type: functional, organism-based
Plasmodium falciparum [3] = experiment: Antiplasmodial activity against sensitive Plasmodium falciparum NF54 infected in human red blood cells assessed as reduction in [3H]-hypoxanthine incorporation pretreated for 48 hrs followed by [3H]-hypoxanthine addition measured after 24 hrs by scintillation counting method; type: functional, organism-based
NIH3T3 = experiment: Phototoxicity against mouse 3T3 cells by neutral red uptake assay; type: toxicity, cell-based
[4] = Terminal half life in Cynomolgus monkey blood at 1 mg/kg, iv measured at 2 to 72 hrs by LC-MS/MS analysis; type: ADME, organism-based, Macaca fascicularis; conditions: whole blood, time 2-72 hrs, read-out: beta t1/2 (converted)
Plasmodium falciparum [5] = experiment: Antimalarial activity against ELQ300 resistant Plasmodium falciparum Dd2 harbouring pfcytB mutated loci assessed as inhibition of parasite growth pretreated for 48 hrs followed by [3H]-hypoxanthine addition measured after 24 hrs by scintillation counting method; type: functional, organism-based
[6] = Cardiotoxicity in anesthetized guinea-pig assessed as QRS widening at 90 nM; type: toxicity, Cavia porcellus; conditions: 0.09 µM
Plasmepsin IX = biological target: T1, Plasmepsin IX (Plasmodium falciparum, UniProt Q8ILG2); experiment: Inhibition of PMIX in Plasmodium falciparum 3D7 HA epitope
T1 sequence (Q8ILG2 whole entry): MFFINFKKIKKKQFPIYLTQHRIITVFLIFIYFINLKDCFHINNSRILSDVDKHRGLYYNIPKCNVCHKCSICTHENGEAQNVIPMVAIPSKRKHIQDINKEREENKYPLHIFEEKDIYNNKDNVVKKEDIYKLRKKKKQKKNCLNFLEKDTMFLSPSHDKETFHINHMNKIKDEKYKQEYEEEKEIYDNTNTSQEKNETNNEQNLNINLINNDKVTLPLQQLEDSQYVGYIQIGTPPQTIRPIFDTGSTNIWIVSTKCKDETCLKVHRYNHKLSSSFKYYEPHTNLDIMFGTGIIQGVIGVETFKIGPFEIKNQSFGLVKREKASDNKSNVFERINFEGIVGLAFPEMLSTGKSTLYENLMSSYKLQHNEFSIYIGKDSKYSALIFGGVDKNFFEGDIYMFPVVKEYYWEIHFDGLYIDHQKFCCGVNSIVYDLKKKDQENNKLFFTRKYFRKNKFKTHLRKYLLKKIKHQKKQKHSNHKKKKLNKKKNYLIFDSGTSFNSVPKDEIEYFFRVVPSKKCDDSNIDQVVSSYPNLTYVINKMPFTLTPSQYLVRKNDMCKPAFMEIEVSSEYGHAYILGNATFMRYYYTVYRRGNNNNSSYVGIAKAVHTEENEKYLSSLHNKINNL

[7] = Cardiotoxicity in anesthetized guinea-pig assessed as QRS widening at 1600 nM; type: toxicity, Cavia porcellus; conditions: 1.6 µM
[8] = Clearance in Cynomolgus monkey blood at 1 mg/kg, iv measured at 2 to 72 hrs by LC-MS/MS analysis; type: ADME, organism-based, Macaca fascicularis; conditions: whole blood, time 2-72 hrs
[9] = Genotoxicity in Han Wistar rat by micronucleus assay; type: toxicity
Plasmodium falciparum [10] = experiment: Antimalarial activity against Plasmodium falciparum Dd2048 harbouring pfpi4k mutated loci assessed as inhibition of parasite growth pretreated for 48 hrs followed by [3H]-hypoxanthine addition measured after 24 hrs by scintillation counting method; type: functional, organism-based
[11] = Cardiotoxicity in anesthetized guinea-pig assessed as decrease in arterial blood pressure; type: toxicity, Cavia porcellus; conditions: 0.09 µM, DDE = dose-dependent effect, dose 90 nM
[12] = AUC in Cynomolgus monkey blood at 1 mg/kg, iv measured at 2 to 72 hrs by LC-MS/MS analysis; type: ADME, organism-based, Macaca fascicularis; design: dose 1 mg/kg, time 2-72 hrs, route iv; conditions: whole blood
[13] = Volume of distribution at steady state in Cynomolgus monkey blood at 1 mg/kg, iv measured at 2 to 72 hrs by LC-MS/MS analysis; type: ADME, organism-based, Macaca fascicularis; conditions: whole blood, time 2-72 hrs, read-out: Vdss
[14] = Clearance in Sprague-Dawley rat blood at 1 mg/kg, iv measured at 2 to 72 hrs by LC-MS/MS analysis; type: ADME, organism-based; conditions: whole blood, time 2-72 hrs
[15] = Toxicity in Han Wistar rat assessed as structural changes in retina at 250 to 1000 mg/kg, po administered every other day for 7 days; type: organism-based; conditions: in vivo, 168 h, dose 250-1000 mg/kg, time 7 day
Plasmodium falciparum [16] = experiment: Antimalarial activity against DSM265 resistant Plasmodium falciparum Dd2 harbouring pf-dhodh mutated loci assessed as inhibition of parasite growth pretreated for 48 hrs followed by [3H]-hypoxanthine addition measured after 24 hrs by scintillation counting method; type: functional, organism-based
[17] = Toxicity in Han Wistar rat assessed as effect on auditory reflex at 250 to 1000 mg/kg, po administered every other day for 7 days; type: organism-based; conditions: in vivo, 168 h, dose 250-1000 mg/kg, time 7 day
[18] = Toxicity in Han Wistar rat assessed as auto-fluorescent granule accumulation in retinal epithelium at 250 to 1000 mg/kg, po administered every other day for 7 days; type: organism-based; conditions: in vivo, 168 h, dose 250-1000 mg/kg, time 7 day
[19] = Cmax in Cynomolgus monkey blood at 10 mg/kg, po measured at 2 to 72 hrs by LC-MS/MS analysis; type: ADME, organism-based, Macaca fascicularis; design: dose 10 mg/kg, time 2-72 hrs, route po; conditions: whole blood
[20] = Drug metabolism in Cynomolgus monkey hepatocytes assessed as (S)-6-(2-chloro-3-((6-cyclopropylpyridin-3-yl)amino)phenyl)-2-imino-6-methyl-3-((2S,4S)-2-methyltetrahydro-2H-pyran-4-yl)tetrahydropyrimidin-4(1H)-one metabolite formation; type: ADME, cell-based, Macaca fascicularis, Hepatocyte
[21] = Drug metabolism in rat hepatocytes assessed as (S)-6-(2-chloro-3-((6-cyclopropylpyridin-3-yl)amino)phenyl)-2-imino-6-methyl-3-((2S,4S)-2-methyltetrahydro-2H-pyran-4-yl)tetrahydropyrimidin-4(1H)-one metabolite formation; type: ADME, cell-based, Hepatocyte
[22] = Drug metabolism in dog hepatocytes assessed as (S)-6-(2-chloro-3-((6-cyclopropylpyridin-3-yl)amino)phenyl)-2-imino-6-methyl-3-((2S,4S)-2-methyltetrahydro-2H-pyran-4-yl)tetrahydropyrimidin-4(1H)-one metabolite formation; type: ADME, cell-based, Canis lupus familiaris, Hepatocyte
[23] = Solubility of the compound in FeSSIF; type: physicochemical; conditions: simulated gi fluid
Plasmodium berghei [24] = experiment: Antimalarial activity against Plasmodium berghei sporozoites infected in naive C57B/6 liver mouse model assessed as decrease in liver infection at 50 mg/kg, po administered once daily for 1 to 2 days by Giemsa staining based microscopic analysis; type: functional, organism-based; conditions: time 1-2 day
Plasmodium falciparum [25] = experiment: Resistance development in asexual blood stage Plasmodium falciparum Dd2-B2 assessed as minimum inoculum of resistance at 3 times IC50 measured on day 30 using at 2 x 10^7 inoculum by SYBR dye based flow cytometry; type: functional, organism-based; conditions: time 30.0 day
[26] = Lipophilicity, logD of compound at pH 7.4; type: physicochemical; conditions: buffer
Plasmodium berghei [27] = experiment: Antimalarial activity against luciferase expressing Plasmodium berghei sporozoites infected in naive C57B/6 liver mouse model assessed as decrease in liver infection at 50 mg/kg, po administered twice daily on day 8 by Giemsa staining based microscopic analysis; type: functional, organism-based; conditions: time 8.0 day
Plasmodium falciparum [28] = experiment: Antimalarial activity against Plasmodium falciparum infected NSG mouse model at 50 mg/kg, po administered daily for 3 days; type: functional, organism-based; conditions: time 3.0 day

Question: With C[C@H]1C[C@@H](N2C(=N)N[C@](C)(c3cccc(NC(=O)c4cccc(C#N)c4)c3Cl)CC2=O)CCO1 as the compound, how does the IC50 (Plasmodium falciparum [1]) read?
Answer: 18 nM

Question: What about the IC50 (Plasmodium falciparum [2]) of the same compound?
Answer: 24 nM

Question: What about the IC50 (Plasmodium falciparum [3]) of the same compound?
Answer: 34.6 nM

Question: And the Activity (NIH3T3)?
Answer: Non-Toxic

Question: And the half-life [4]?
Answer: 4.1 h

Question: What about the IC50 (Plasmodium falciparum [5]) of the same compound?
Answer: 17 nM

Question: What about the Activity [6] of the same compound?
Answer: Non-Toxic

Question: And the IC50 (Plasmepsin IX)?
Answer: 142 nM

Question: And the Activity [7]?
Answer: Non-Toxic

Question: And the clearance [8]?
Answer: 18.9 mL/min/kg

Question: What about the Activity [9] of the same compound?
Answer: Non-Toxic

Question: And the IC50 (Plasmodium falciparum [10])?
Answer: 20 nM

Question: What about the Activity [11] of the same compound?
Answer: Dde

Question: What about the AUC [12] of the same compound?
Answer: 1.91 µM·h

Question: And the Vd [13]?
Answer: 3.07 L/kg

Question: What about the clearance [14] of the same compound?
Answer: 43.9 mL/min/kg

Question: And the Activity [15]?
Answer: Non-Toxic

Question: What about the IC50 (Plasmodium falciparum [16]) of the same compound?
Answer: 22 nM

Question: And the Activity [17]?
Answer: Non-Toxic

Question: What about the Activity [18] of the same compound?
Answer: Non-Toxic

Question: What about the Cmax [19] of the same compound?
Answer: 2560 nM

Question: Which results are given for C[C@H]1C[C@@H](N2C(=N)N[C@](C)(c3cccc(Nc4ccc(C5CC5)nc4)c3Cl)CC2=O)CCO1?
Answer: Drug metabolism [20]: Metabolite_Detected; Drug metabolism [21]: Metabolite_Detected; Drug metabolism [22]: Metabolite_Detected; solubility [23]: 960 µM (≈ 449 µg/mL); Activity (Plasmodium berghei [24]): Active; Activity (Plasmodium falciparum [25]): Active; logD [26]: 2.5; Activity (Plasmodium berghei [27]): Active; Activity (Plasmodium falciparum [28]): Active
